Source: patent US20250108023A1, “Products for Masking Bitterness” (The Third People's Hospital of Henan Province, priority 2023, published 2025)
Where two headings read alike, the source gives them in different places.

Key:
[1] = Oral spray bitterness masking taste test by volunteers with Coptis chinensis standard bitter solution; type: in vivo, healthy volunteers; parameters: key to bitterness value after drug: bitterness value 0.5–5.5; 1 = none, 5 = unbearable; key to Reduction of bitterness: drop in bitterness value (0.5–5.5 scale) from initial; conditions: for Duration >: retention time until bitterness rises; for inhibition in vivo at 0.2 %: Homo sapiens, read-out: Reduction range; for bitterness value after drug: initial bitterness 4.0, 16 cases
Experimental: Purpose of the experiment: it is to screen out compounds that take effect within 5 seconds, last for 30-120 seconds, and it is expected, by using such kind of compounds, the taste of the drug cannot be felt during the duration (30-120 seconds) when taking the drug.
Principle of the experiment: simulate the process of taking medicine and using the taste masking agents, first spray about 0.5 ml of oral spray on the throat (3 times), and after it takes effect quickly, taste 10 ml of bitter standard solution to screen drugs that can be used in advance and can mask the bitter taste.
• 1: Volunteer screening. The research team strictly screened the recruited volunteers and finally selected healthy volunteers as subjects. They signed informed consent forms before the experiment; • 2: Standard bitterness sample preparation. The bitterness of the samples was divided into five levels, and each level was assigned a certain bitterness value range; • 3: The sensory standard was corrected by the oral taste evaluation method, that is, the sensory standard was corrected by comparing the taste evaluation of the volunteers with the established bitterness value of the reference sample group. Specific steps: when the volunteers are doing the oral tasting test, the reference solutions of various concentrations are placed in the tasting cups, and the volunteers hold one of the solutions in their mouths, time it, and rinse their mouths by using the solution so that the bitter taste perception area at the root and sides of the tongue can fully feel the bitter taste of the drug. […] Then dilute all the selected taste masking drugs, prepare the solution, take 10 ml and put it into the spray bottle, spray it into the mouth 3 times, stay for 5 seconds, drink 10 ml of standard bitterness solution, feel and record the bitterness value, keep the standard bitterness solution in the mouth until the bitterness rises, and record the retention time. • 5: Quality control. […] Since the experimental objects are biological samples and there are individual differences between different subjects, there may be individual outliers in the experimental test data. The Grubbs test method was used to exclude outliers in the data, and then the experimental data were plotted in tables and curves for data analysis.
It is necessary to process the experimental data. Specifically, the Grubbs test method was used to perform a circular test and elimination of outliers on the data, and a bilateral test was used to eliminate outliers in the oral test. Considering the characteristics of biological samples, the detection level was selected as 0.1 and the elimination level was selected as 0.05 in this experiment.
The experimental medicinal material processing method mentioned in the above technical scheme is as follows: Preparation of bitter standard solution, use 10 g of Coptis chinensis powder, add 100 ml of pure water above 90 degrees, stir, let stand for 20 minutes, take the supernatant for use, determine the standard bitterness of 4.0 degrees by oral tasting, dilute 5 times, determine the standard bitterness of 2.0 degrees, dilute 2.0 degrees again 5 times, determine the standard bitterness of 0.5 degrees. Compare with the bitterness scoring table, (level 1 means “no bitterness or almost no bitterness”, the bitterness value is 0.5˜1.5; level 2 means “slightly bitter”, the bitterness value is 1.5˜2.5; level 3 means “bitter but acceptable”, the bitterness value is 2.5˜3.5; level 4 means “very bitter, but still tolerable”, the bitterness value is 3.5˜4.5; level 5 means “unbearable bitterness”, the bitterness value is 4.5˜5.5). Adjust the judgment and cognition of bitterness.
The standard bitterness solution used in this experiment to verify the experimental effect is a 4.0 degree bitterness solution of Coptis chinensis prepared according to the above method.

[2] = Broad-spectrum taste masking test on decoctions of extremely bitter Chinese herbal medicine slices; type: in vivo, healthy volunteers; parameters: key: reduction in bitterness degrees on a 5-degree graduation scale; conditions: 0.1% taste masking agent in 40% ethanol
Experimental: According to the standard of decocting 100 ml of liquid from 10 g of dry Chinese herbal medicine slices (decoction method: use a stainless steel container, and keep for 20 minutes after boiling), from 300 commonly used Chinese herbal medicine slices, combined with the Chinese Pharmacopoeia, more than 20 Chinese herbal medicines with bitter or extremely bitter properties written in the pharmacopoeia were selected, including Bletilla striata, Cortex qin, Stephania tetrandra, Apricot kernel, Belamcanda chinensis, Angelica dahurica, Lotus seed heart, Toosendan fruit, Andrographis paniculata, Sophora flavescens, Coptis chinensis, Gentiana scabra, Forsythia suspensa, Sophora japonica, Phellodendron amurense, Scutellaria baicalensis, Platycodon grandiflorum, Notopterygium wilfordii, Saposhnikovia divaricata, Perilla frutescens, Zanthoxylum bungeana, Osmanthus fragrans, Sophora flavescens, and Chrysanthemum officinale, totally 24 kinds of Chinese herbal medicines.
Finally, through the 5-degree graduation method, 2 species with a bitterness higher than 3.5 (moderate bitterness) and 7 species with a bitterness higher than 5 degrees (highly bitter, extremely bitter, accompanied by nausea) were screened out, a total of 9 species (Angelica pubescens, Lotus Seed Heart, Toosendan, Andrographis paniculata, Sophora flavescens, Coptis chinensis, Gentiana scabra, Forsythia suspensa, Sophora japonica) are selected as bitterness representatives to participate in the bitterness masking experiment. (Note: The bitterness of Coptis chinensis slices can reach 5.2 after 20 minutes of water decoction. The reference standard solution is 90-degree water brewing Coptis chinensis powder, it is automatically cooled to obtain a solution with a bitter taste of 4.0. Because Coptis chinensis has been used as a standard bitter liquid, it is no longer used).
The experimental method is the same as the previous part.

[3] = 0.2% solution in 60% ethanol as oral spray
[4] = 0.2% solution in 60% ethanol as oral spray, relative to original bitterness 4.0
[5] = concentration 0.001% in 60% ethanol
[6] = concentration 0.005% in 60% ethanol
[7] = concentration 0.02% in 60% ethanol
[8] = concentration 0.10% in 60% ethanol
[9] = concentration 0.50% in 60% ethanol
[10] = Andrographis paniculata, original bitterness 5
[11] = Forsythia suspensa, original bitterness 3
[12] = Gentiana, original bitterness 5
[13] = Lotus seed heart, original bitterness 5
[14] = Sophora flavescens, original bitterness 5
[15] = Toulianzi, original bitterness 5

SMILES	Duration > [1, 3] [s]	inhibition in vivo at 0.2 % [1, 4] [%]	Reduction of bitterness ([1]; 0.2% solution in 60% ethanol as oral spray, original bitterness average 4.0, average of 31 cases)	Reduction range [1, 4] [%]	bitterness value after drug [1, 5]	bitterness value after drug [1, 6]	bitterness value after drug [1, 7]	bitterness value after drug [1, 8]	bitterness value after drug [1, 9]	Bitterness reduction value [2, 10]	Bitterness reduction value [2, 11]	Bitterness reduction value [2, 12]	Bitterness reduction value [2, 13]	Bitterness reduction value ([2]; Puhuo, original bitterness 5)	Bitterness reduction value [2, 14]	Bitterness reduction value [2, 15]	inhibition in vivo at 0.2 % ([1]; po) [%]
COc1cc(C(=O)O)ccc1O [Vanillic acid, 3-methoxy-4-hydroxybenzoic acid]	> 50	27.5															
CC(C)[C@@H]1CC[C@@H](C)C[C@H]1OC(=O)CCC(=O)O [Menthyl succinate]	> 10		1.6	40.00	3.2	2.8	2.6	2.4	2.1								
O=CC=Cc1ccccc1 [Cinnamaldehyde, 3-phenyl-2-propenal]	> 50	72.5			3.5	2.6	1.5	1.1	1.2	4	1.7	4.2	2.3	4.2	2.3	3.5	
COc1ccc(CCN(C)CCCC(C#N)(c2ccc(OC)c(OC)c2)C(C)C)cc1OC (centres unmarked) [Verapamil, 5-((3,4-dimethoxyphenylethyl)methylamino)-2-(3,4-dimethoxyphenyl)-2-isopropylvaleronitrile, reference compound]																	0
CCCCC[C@H](O)CC(=O)CCc1ccc(O)c(OC)c1 [Gingerol, 6-gingerol]	> 20	55			4	2.4	2.1	1.8	1.8								
C=CC(C)(O)CCC=C(C)C (centres unmarked) [Linalool, linalool]	> 30	52.5			3.5	2.5	2.1	1.9	1.9	0.8	2	1.2	1.6	2.5	0.5	1.1	
C=CCc1ccc(OC(C)=O)c(OC)c1 [Eugenol acetate]	> 60	60			3.8	3.2	2.3	1.6	1.4								
CC(C)=CCCC(C)=CC=O [Citral, citral]	> 30	57.5			3.7	2.8	2.1	1.7	1.9	1.5	2.5	3.7	3.5	3.75	1.7	1.5	
CC1CCC(C(C)C)C(=O)C1 (centres unmarked) [Menthone, 5-methyl-2-isopropylcyclohexanone]	> 30	70			2.5	2.1	1.4	1.2	1.1								
